Test system: not listed separately
Assay: Protein binding in mouse plasma assessed as unbound fraction
Format: ADME, cell-free
In the case of `c1ccc(-c2nnc(Cc3c[nH]c4ccccc34)nc2-c2ccccc2)cc1`, the fraction unbound is reported as under 0.01. Compound `c1ccc(-c2nc(Cc3c[nH]c4ccccc34)nnc2-c2ccc(CN3CCOCC3)cc2)cc1` has a fraction unbound of under 0.01.

Target: G-protein coupled receptor 84 (Homo sapiens, UniProt Q9NQS5)
Sequence (Q9NQS5 whole entry): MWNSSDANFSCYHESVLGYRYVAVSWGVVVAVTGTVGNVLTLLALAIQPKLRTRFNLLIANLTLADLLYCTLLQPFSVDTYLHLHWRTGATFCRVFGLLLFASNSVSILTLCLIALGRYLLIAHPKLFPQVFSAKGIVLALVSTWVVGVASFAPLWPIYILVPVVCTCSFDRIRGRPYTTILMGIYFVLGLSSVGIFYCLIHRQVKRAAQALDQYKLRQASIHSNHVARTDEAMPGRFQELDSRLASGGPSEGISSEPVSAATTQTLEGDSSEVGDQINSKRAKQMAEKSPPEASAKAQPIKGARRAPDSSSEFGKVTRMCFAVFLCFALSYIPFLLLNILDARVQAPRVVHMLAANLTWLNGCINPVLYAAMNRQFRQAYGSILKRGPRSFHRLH
Assay: biochemical
Work on `c1ccc(-c2cnc(Cc3c[nH]c4ccccc34)nn2)cc1` yielded an IC50 of 5620 nM. In the case of `c1ccc(-c2cnnc(Cc3c[nH]c4ccccc34)n2)cc1`, the IC50 is reported as 10200 nM. `c1ccc(-c2nnc(Cc3c[nH]c4ccccc34)nc2-c2ncccn2)cc1` gave an IC50 of 263 nM. `COC(=O)c1cccc(-c2nc(Cc3c[nH]c4ccccc34)nnc2-c2ccccc2)c1` showed an IC50 of 398 nM. For `COC(=O)c1cccc(-c2nnc(Cc3c[nH]c4ccccc34)nc2-c2ccccc2)c1`, the IC50 was 115 nM.
